Experimental data taken from patent publication US10316039B2, “P2X3 and/or P2X2/3 compounds and methods” (Asana Biosciences, LLC, priority 2013, dated 2019).

Columns and labels:
P2X3 = target: T1, P2X3 (UniProt P56373); test: P2X3 FLIPR intracellular calcium assay; assay type: cell-based; conditions: agonist at EC75, species (human or rat) not given
T1 sequence (P56373 1-397): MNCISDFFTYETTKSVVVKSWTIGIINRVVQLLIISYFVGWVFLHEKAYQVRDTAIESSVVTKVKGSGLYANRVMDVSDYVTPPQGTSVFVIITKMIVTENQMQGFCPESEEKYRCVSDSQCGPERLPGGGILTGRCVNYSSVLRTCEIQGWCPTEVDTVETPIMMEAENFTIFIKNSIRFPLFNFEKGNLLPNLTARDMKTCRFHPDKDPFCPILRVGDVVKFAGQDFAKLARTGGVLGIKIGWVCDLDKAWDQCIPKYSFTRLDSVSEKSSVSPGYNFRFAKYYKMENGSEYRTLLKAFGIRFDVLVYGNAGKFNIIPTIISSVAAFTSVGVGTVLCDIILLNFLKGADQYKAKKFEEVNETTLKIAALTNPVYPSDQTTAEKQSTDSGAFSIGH
Description: The FLIPR® assay utilizes cells which express human or rat P2X3 or P2X2/3 receptors. […] The PCR product obtained containing the protein coding sequence of rat P2X2 was cloned into EcoRV-digested and dephosphorylated vector pIRES-puro3 within the multiple cloning site (MCS). See, FIG. 1A.
Rat P2X3 (NCBI Accession No: X91167) was amplified by PCR from rat brain cDNA. The PCR product obtained containing the protein coding sequence of rat P2X3 was cloned into EcoRV-digested and dephosphorylated vector pCDNA-Hygro within the multiple cloning site (MCS) (FIG. 1B). Rat P2X3 cloned into pcDNA-Hygro was then subcloned into pcDNA-5/TO at HindIII (5′) and XhoI (3′) sites within the multiple cloning site (MCS) of the vector (FIG. 1C).
(§1) Transfection was carried out using super-coiled constructs (purified using QIAGEN kit) in antibiotic free, serum free DMEM using Lipofectamine® 2000 (Invitrogen) transfection agent. The DNA constructs rat P2X2 in pIRES-Puro3 and rat P2X3 in pCDNA5/TO were co-transfected into TRex293 cells in order to generate the rP2X2/3 stable line. 50 μg/mL hygromycin (Invitrogen) and 0.5 μg/mL puromycin (Fermentek) were used for selection of stable clones of rP2X2/3. Rat P2X3 in pCDNA5/TO DNA construct was transfected to CHO-TRex cells to generate the rP2×3 stable line and 500 μg/mL hygromycin (Invitrogen) was used as selection antibiotic. Transfected stable colonies were then functionally verified and robust clones suitable for assay were clonally purified through dilutions.
(§2) Cryo-vial containing 6×10^6 cells (human P2X3-HEK/human P2X2/3-TRex293/rat P2X2/3-TRex293/rat P2X3 TRex-CHO) was thawed in a 37° C. water bath. Cells were suspended in 20 mL of respective cell plating media (See annexure for composition) in a 50 mL centrifuge tube. The cell viability was checked with the help of Trypan Blue dye. Upon washing, cells were plated in a black 384-well clear bottomed, sterile poly-D-lysine coated plate such that, each well contained 10,000 cells (15,000/well for hP2X3) in 30 μL cell plating media. The plate was incubated in a 5% CO2 incubator at 37° C. for 24 h.
(§3) The next day, prior to the assay, the cell plating media was removed from each well by decanting and gentle tapping. Thirty μL of FLIPR Calcium 4 dye solution was added to each well. The plate was incubated at 37° C. for 45 min (60 min for hP2X3). The plate was next equilibrated at room temperature for 15 minutes before placing it in a 384 well FLIPR for the assay.
Dilutions were mixed with assay buffer just before performing the assay.
(§4) Compounds were added to the respective wells of the assay-ready cell plate with the help of the FLIPR and fluorescence readings were captured for 5 min to observe any possible agonistic property of the compounds. The plate was then incubated at room temperature for 15 min. The cells were stimulated with respective agonist EC75 concentration and the fluorescence readings were captured for another 5 min by FLIPR. The difference in fluorescence readings in presence of the compounds were compared with that of the control wells (wells having no compound) to calculate the inhibitory potency of the compounds. The IC50 values of the compounds were determined using the Graph pad Prism software.
(vi) Dye Solution Composition • 1×FLIPR Calcium 4 dye in assay buffer (Molecular devices Cat# R8141) • 1.8 mM Probenecid (Sigma Cat# P8761) • pH adjusted to 7.4

P2X2/3 = target: T2, P2X2/3 (Homo sapiens, UniProt P56373+Q9UBL9); test: P2X2/3 FLIPR intracellular calcium assay; assay type: cell-based; conditions: agonist at EC75, species (human or rat) not given
T2 sequence (Q9UBL9 1-471): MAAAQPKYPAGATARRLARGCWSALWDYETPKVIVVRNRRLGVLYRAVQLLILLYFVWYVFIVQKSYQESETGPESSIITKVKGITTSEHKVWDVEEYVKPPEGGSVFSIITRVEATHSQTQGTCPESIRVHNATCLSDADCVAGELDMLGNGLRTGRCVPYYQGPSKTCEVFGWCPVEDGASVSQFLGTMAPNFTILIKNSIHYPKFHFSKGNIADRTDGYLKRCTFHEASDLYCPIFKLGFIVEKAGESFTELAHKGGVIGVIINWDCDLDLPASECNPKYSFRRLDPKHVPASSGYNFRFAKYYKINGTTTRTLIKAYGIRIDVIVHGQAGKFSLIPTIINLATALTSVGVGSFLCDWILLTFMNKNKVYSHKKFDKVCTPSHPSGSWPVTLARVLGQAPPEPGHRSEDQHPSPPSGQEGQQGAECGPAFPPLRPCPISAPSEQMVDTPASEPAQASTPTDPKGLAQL
T2 sequence (P56373 1-397): T1 sequence (P56373 1-397)
Description: The FLIPR® assay utilizes cells which express human or rat P2X3 or P2X2/3 receptors. Recombinant cells expressing hP2X3 (Cat#6188) and hP2X2/3 (Cat#6179) were procured from Chantest Corp. Rat P2X2 (NCBI Accession No: U14414) was amplified by PCR from PC12 cDNA (a rat adrenal medulla cell line). The PCR product obtained containing the protein coding sequence of rat P2X2 was cloned into EcoRV-digested and dephosphorylated vector pIRES-puro3 within the multiple cloning site (MCS). See, FIG. 1A.
as §1, §2, §3
Compounds were dissolved in DMSO and serially diluted following 11 point half log (3.16 fold) dilution with a starting concentration of 2 mM. Dilutions were mixed with assay buffer just before performing the assay.
as §4
(ii) Cell Plating Media for hP2X3-HEK and hP2X2/3-TRex293 Cells • DMEM/F12 (1:1) HAM media (Invitrogen; Cat#11039) • 1×NEAA (Invitrogen; Cat#11140) • 25 mM HEPES (Invitrogen; Cat#15630) • 1 mM sodium pyruvate (Invitrogen; Cat#11360) • 10% tetracycline negative FBS (PAA; Cat# A15-209) • 1 μg/mL doxycycline (Clontech; Cat#63131) [for hP2X2/3-TRex293 cells only]
(iii) Cell Plating Media for rP2X2/3-TRex293 Cells • DMEM media (Invitrogen; Cat#11965) • 25 mM HEPES (Invitrogen; Cat#15630) • 10% tetracycline negative FBS (PAA; Cat# A15-209) • 1 μg/mL Doxycycline (Clontech; Cat#63131)
(v) Assay Buffer Composition • HBSS (Invitrogen Cat#14025) • 20 mM HEPES (Invitrogen Cat#15630) • 0.01% F127 (Sigma Cat# P2443) • 1.8 mM CaCl2 (Sigma Cat# C5080) • pH adjusted to 7.4 […]

Row | Compound | IC50 (P2X3) | IC50 (P2X2/3)
1 | Cc1cnc(CNC(=O)c2cc(-n3nnnc3C3CCC3)c3ncc(-c4ccc(C)s4)n3c2)cn1 [Example 164] | > 10000 nM | 1 to 100 nM
2 | CC[C@H](NC(=O)c1cc(-n2nncc2C(C)C)c2ncc(-c3ccc(Cl)s3)n2c1)c1nnc[nH]1 [Example 69] | 1 to 100 nM | 100 to 1000 nM
3 | Cc1ccc(-c2cnc3c(N4CCC(C)CC4)cc(C(=O)N[C@@H](C)c4nnc[nH]4)cn23)s1 [Example 11, (S)—N-(1-(4H-1,2,4-Triazol-3-yl)ethyl)-8-(4-methylpiperidin-1-yl)-3-(5-methylthiophen-2-yl)imidazo[1,2-a]pyridine-6-carboxamide] | 1 to 100 nM | 100 to 1000 nM
4 | CCc1ccnn1-c1cc(C(=O)NCc2ccc(C)nc2)cn2c(-c3ccc(C)s3)cnc12 [Example 6, 8-(5-Ethyl-1H-pyrazol-1-yl)-N-((6-methylpyridin-3-yl)methyl)-3-(5-methylthiophen-2-yl)imidazo[1,2-a]pyridine-6-carboxamide] | > 10000 nM | 100 to 1000 nM
5 | Cc1ccc(-c2cnc3c(N(C)C(=O)C(C)C)cc(C(=O)N[C@@H](C)c4nnc[nH]4)cn23)s1 [Example 20, (S)—N-(1-(4H-1,2,4-Triazol-3-yl)ethyl)-8-(N-methylisobutyramido)-3-(5-methylthiophen-2-yl)imidazo[1,2-a]pyridine-6-carboxamide] | 1 to 100 nM | 100 to 1000 nM
6 | Cc1ccc(-c2cnc3c(N4CCC(C)CC4)cc(C(=O)NCc4ccn(C)c(=O)c4)cn23)s1 [Example 128] | 1 to 100 nM | 100 to 1000 nM
7 | Cc1ncc(CNC(=O)c2cc(-n3nncc3C(C)(F)F)c3ncc(-c4ncc(C)s4)n3c2)cn1 [Example 71] | 1 to 100 nM | 100 to 1000 nM
8 | CCc1cnnn1-c1cc(C(=O)NCc2cnc(C)nc2)cn2c(-c3ncc(C)s3)cnc12 [Example 75] | 1 to 100 nM | 100 to 1000 nM
9 | Cc1ccc(CNC(=O)c2cc(-n3nncc3C(F)(F)F)c3ncc(-c4ccc(C)s4)n3c2)cn1 [Example 30] | 1 to 100 nM | 1 to 100 nM
10 | CC[C@H](NC(=O)c1cc(N2CCC(F)(F)CC2)c2ncc(-c3ccc(C)s3)n2c1)c1nnc[nH]1 [Example 144] | 100 to 1000 nM | 1 to 100 nM
11 | Cc1cnc(-c2cnc3c(-n4nncc4C(C)(C)C)cc(C(=O)N[C@@H](C)c4nnc[nH]4)cn23)s1 [Example 57] | 1 to 100 nM | 100 to 1000 nM
12 | Cc1ccc(-c2cnc3c(-c4cnn(CC(N)=O)c4)cc(C(=O)N[C@@H](C)c4nnc[nH]4)cn23)s1 [Example 112] | 100 to 1000 nM | 1000 to 10000 nM
13 | Cc1ncc(CNC(=O)c2cc(-n3nncc3C(F)(F)F)c3ncc(-c4ccc(C)s4)n3c2)cn1 [Example 39] | 1 to 100 nM | 1 to 100 nM
14 | CCc1cnnn1-c1cc(C(=O)NCc2cnc(C)nc2)cn2c(-c3ccc(C)s3)cnc12 [Example 33] | 1 to 100 nM | 1 to 100 nM
15 | Cc1ccc(-c2cnc3c(N4CCC(F)(F)CC4)cc(C(=O)N[C@@H](C)c4cc[nH]n4)cn23)s1 [Example 143] | 1000 to 10000 nM | –
16 | Cc1ccc(CNC(=O)c2cc(-n3nncc3C(C)C)c3ncc(-c4ccc(C)s4)n3c2)cn1 [Example 45] | > 10000 nM | 1 to 100 nM
17 | CC[C@H](NC(=O)c1cc(N2CCC(OC)CC2)c2ncc(-c3ccc(C)s3)n2c1)c1nnc[nH]1 [Example 146] | 1 to 100 nM | 100 to 1000 nM
18 | Cc1ccc(-c2cnc3c(-c4c(C)n[nH]c4C)cc(C(=O)N[C@@H](C)c4nnc[nH]4)cn23)s1 [Example 110] | 1 to 100 nM | 1 to 100 nM
19 | Cc1ccc(CNC(=O)c2cc(-n3nncc3C)c3ncc(-c4ccc(C)s4)n3c2)cn1 [Example 28] | 1 to 100 nM | 1 to 100 nM
20 | Cc1noc([C@@H](C)NC(=O)c2cc(-n3nnnc3C(C)(F)F)c3ncc(-c4ccc(C)s4)n3c2)n1 [Example 186] | > 10000 nM | 1 to 100 nM
21 | CCc1cnnn1-c1cc(C(=O)N[C@H](c2nnc[nH]2)C(C)C)cn2c(-c3ccc(C)s3)cnc12 [Example 73] | 100 to 1000 nM | 100 to 1000 nM
22 | Cc1ccc(-c2cnc3c(-c4cnn(CCF)c4)cc(C(=O)N[C@@H](C)c4nnc[nH]4)cn23)s1 [Example 105] | 1 to 100 nM | 100 to 1000 nM
23 | Cc1ccc(CNC(=O)c2cc(-n3nnnc3CC3CC3)c3ncc(-c4ccc(C)s4)n3c2)cn1 [Example 156] | > 10000 nM | 1 to 100 nM
24 | CC[C@H](NC(=O)c1cc(-n2nnnc2C(F)F)c2ncc(-c3ccc(Cl)s3)n2c1)c1nnc[nH]1 [Example 174] | 1 to 100 nM | 1 to 100 nM
25 | CCc1nnnn1-c1cc(C(=O)NCc2ccc(C)nc2)cn2c(-c3ccc(C)s3)cnc12 [Example 153] | > 10000 nM | 1 to 100 nM
26 | Cc1ncc(CNC(=O)c2cc(-n3nncc3C(C)C)c3ncc(-c4ccc(C)s4)n3c2)cn1 [Example 40] | > 10000 nM | 1 to 100 nM
27 | C[C@H](NC(=O)c1cc(-n2nncc2C(F)(F)F)c2ncc(-c3ccc(Cl)s3)n2c1)c1nnc[nH]1 [Example 79] | 1 to 100 nM | 1 to 100 nM
28 | Cc1ccc(CNC(=O)c2cc(-n3nncc3C(F)F)c3ncc(-c4ccc(C)s4)n3c2)cn1 [Example 27] | 1 to 100 nM | –
29 | COc1ccc(CNC(=O)c2cc(-n3nnnc3C3CCC3)c3ncc(-c4ccc(C)s4)n3c2)cc1 [Example 163] | > 10000 nM | –
